Measurements: PMC8608967, “KDS2010, a Newly Developed Reversible MAO-B Inhibitor, as an Effective Therapeutic Candidate for Parkinson’s Disease” (Neurotherapeutics, 2021)
Like-named read-outs stand apart in the source and are kept apart here.

What was measured:
[1] = target: T1, human recombinant MAO-B (hMAO-B) (Homo sapiens, UniProt P27338); assay: In vitro MAO-B enzyme assay (H2O2 release, absorbance 570 nm); assay type: biochemical; conditions: for IC50: hMAO-B, substrate benzylamine, read-out: Inhibition (IC50) MAO-B; for SI (selectivity index), IC50(MAO-A)/IC50(MAO-B): selectivity for MAO-B isoform
T1 construct: purchased Sigma Aldrich
T1 sequence (P27338 1-520): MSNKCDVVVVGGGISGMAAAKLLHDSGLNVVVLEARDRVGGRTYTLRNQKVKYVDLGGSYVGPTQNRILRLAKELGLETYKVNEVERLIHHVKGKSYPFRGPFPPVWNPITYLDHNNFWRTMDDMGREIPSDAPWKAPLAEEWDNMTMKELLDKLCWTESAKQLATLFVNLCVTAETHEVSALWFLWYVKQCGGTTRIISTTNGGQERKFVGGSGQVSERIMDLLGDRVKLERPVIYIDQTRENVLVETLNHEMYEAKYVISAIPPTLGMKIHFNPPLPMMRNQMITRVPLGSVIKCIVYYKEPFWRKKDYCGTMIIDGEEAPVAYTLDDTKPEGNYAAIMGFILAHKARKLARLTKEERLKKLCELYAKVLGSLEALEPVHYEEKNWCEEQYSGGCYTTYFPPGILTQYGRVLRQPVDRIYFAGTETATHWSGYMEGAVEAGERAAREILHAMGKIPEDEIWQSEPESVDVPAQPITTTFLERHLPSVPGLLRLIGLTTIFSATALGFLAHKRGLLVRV
Description: (§1) In brief, human recombinant MAO-A (hMAO-A) and MAO-B (hMAO-B) (Sigma Aldrich) were diluted in 50 mM phosphate buffer (~ 0.3 μg MAO-A protein/well or ~ 2.5 μg MAO-B protein/well), and the test compound was added in DMSO to a final concentration from 0.1 nM to 10 μM. The amount of hydrogen peroxide (H2O2) released after addition of enzyme substrate (p-tyramine for MAO-A or benzylamine for MAO-B) was quantified by measuring the absorbance increase at 570 nm on a microplate reader.

[2] = target: T2, human recombinant MAO-A (hMAO-A) (Homo sapiens, UniProt P21397); assay: In vitro MAO-A enzyme assay (H2O2 release, absorbance 570 nm); assay type: biochemical; conditions: substrate p-tyramine, read-out: Inhibition (IC50) MAO-A
T2 construct: purchased Sigma Aldrich
T2 sequence (P21397 1-527): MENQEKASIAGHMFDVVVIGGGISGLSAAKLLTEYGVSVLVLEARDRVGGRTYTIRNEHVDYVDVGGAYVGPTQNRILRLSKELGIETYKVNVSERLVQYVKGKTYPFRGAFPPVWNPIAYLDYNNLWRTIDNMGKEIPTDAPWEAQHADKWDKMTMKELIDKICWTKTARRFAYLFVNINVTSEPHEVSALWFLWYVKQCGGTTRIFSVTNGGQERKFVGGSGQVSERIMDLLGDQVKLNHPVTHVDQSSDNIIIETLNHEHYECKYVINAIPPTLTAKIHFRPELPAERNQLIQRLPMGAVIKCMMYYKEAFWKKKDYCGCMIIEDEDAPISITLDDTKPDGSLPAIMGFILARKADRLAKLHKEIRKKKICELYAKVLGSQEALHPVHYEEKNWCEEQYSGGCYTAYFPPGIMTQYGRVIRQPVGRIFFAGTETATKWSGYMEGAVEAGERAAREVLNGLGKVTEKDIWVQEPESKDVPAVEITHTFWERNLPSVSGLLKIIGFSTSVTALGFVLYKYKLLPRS
Description: as §1

[3] = target: T1, human recombinant MAO-B (hMAO-B); conditions: cited from earlier work; for IC50: read-out: Inhibition (IC50) MAO-B; for SI (selectivity index), IC50(MAO-A)/IC50(MAO-B): selectivity for MAO-B isoform
[4] = target: T2, human recombinant MAO-A (hMAO-A); conditions: ref Park, JH. et al. Science Advances. 5(3), eaav0136 (2019), read-out: Inhibition (IC50) MAO-A; cited from earlier work
[5] = tested on: MPTP-induced PD mouse model; assay: MPTP mouse model: vertical grid test and coat hanger test; assay type: in vivo; conditions: MPTP mice; long-term (30-day) treatment, 10 mg/kg/day oral
Description: Group allocation and outcome assessment, but not the conduct of experiments and data analysis, were performed in a blinded manner. Throughout the study, confounders were not controlled. An acclimation period of 7 days was allowed for animals to stabilize in a new environment before model induction. […] Treatment drugs were dissolved in 100 μL of water and total dose (in mg) was calculated according to individual body weight (in kg).
The MPTP model was established using the acute regimen of four intraperitoneal (i.p.) injections of MPTP-HCl (M0896, Sigma Aldrich, 2 mg/mL in saline, 20 mg/kg for one injection) at 2-h intervals.
Motor deficits of the MPTP-induced PD mouse model were assessed using the vertical grid test as described in the previous study [23]. Briefly, after 2 days of habituation to the testing apparatus, individual mice were gently placed 3 cm from the top, facing upward, and allowed to turn around and climb down. We also performed a coat hanger test as described [24–26]. Briefly, a mouse was gently hung on the middle of a coat hanger and allowed to ascend to the top. Performance was graded as follows: 0, falling off the hanger within 20 s; 1, moving to the side-bar of the hanger; 2, reaching the side-bar of the hanger; 3, climbing the side-bar of the hanger; 4, moving to the top of the hanger; 5, climbing and reaching the safe zone. The test was performed twice and each trial lasted a maximum of 3 min.

[6] = hMAO-B, ref Park, JH. et al. Science Advances. 5(3), eaav0136 (2019)
[7] = ref Park, JH. et al. Science Advances. 5(3), eaav0136 (2019)

IC50 [1] [µM] | melting point [°C] | IC50 [2] [µM] | SI (selectivity index), IC50(MAO-A)/IC50(MAO-B) [1] | SMILES | IC50 [4] [µM] | also measured
> 10 | 233 to 236 | > 100 | – | CS(=O)(=O)O.NC(=O)CNCc1ccc(-c2ccccc2)cc1 [Compound 17a] | – | –
> 10 | 238 to 242 | > 100 | – | NC(=O)CNCc1ccc(-c2ccc(F)cc2)cc1 [Compound 17d] | – | –
1.56 ± 0.071 | 165 to 168 | > 100 | > 64 | NC(=O)CNCc1ccc(-c2cccc(Cl)c2)cc1 [Compound 17f] | – | –
1.43 ± 0.1 | 262 to 266 | > 100 | > 70 | NC(=O)CNCc1ccc(-c2ccc(Cl)cc2)cc1 [Compound 17g] | – | –
0.999 ± 0.059 | 168 to 169 | > 100 | > 100 | NC(=O)CNCc1ccc(-c2cccc(C(F)(F)F)c2)cc1 [Compound 17i] | – | –
0.121 ± 0.08 | 255 to 256 | > 100 | > 826 | NC(=O)CNCc1ccc(-c2ccc(C(F)(F)F)cc2)cc1 [Compound 17j] | – | fold increase in the IC50 for MAO-B inhibition versus 18j (KDS2010) ([1]; substitution of CH3 with H at X): 15 fold
0.323 ± 0.088 | 152 to 156 | > 100 | > 310 | NC(=O)CNCc1ccc(-c2cccc(OC(F)(F)F)c2)cc1 [Compound 17k] | – | –
0.137 ± 0.07 | 217 to 220 | > 100 | > 730 | NC(=O)CNCc1ccc(-c2ccc(OC(F)(F)F)cc2)cc1 [Compound 17l] | – | –
> 10 | 243 to 245 | > 100 | – | COc1ccc(-c2ccc(CNCC(N)=O)cc2)cc1 [Compound 17n] | – | –
– | 252 to 256 | – | – | C[C@H](NCc1ccc(-c2ccccc2)cc1)C(N)=O [Compound 18a] | > 100 | IC50 [3, 6]: > 10 µM
– | 216 to 220 | – | – | C[C@H](NCc1ccc(-c2ccccc2Cl)cc1)C(N)=O [Compound 18e] | > 100 | IC50 [3, 6]: > 10 µM
– | 220 to 223 | – | – | C[C@H](NCc1ccc(-c2cccc(Cl)c2)cc1)C(N)=O [Compound 18f] | > 100 | IC50 [3, 6]: 0.242 ± 0.008 µM; SI (selectivity index), IC50(MAO-A)/IC50(MAO-B) [3, 7]: > 413
– | 220 to 223 | – | – | C[C@H](NCc1ccc(-c2ccc(Cl)cc2)cc1)C(N)=O [Compound 18g] | > 100 | IC50 [3, 6]: 0.182 ± 0.007 µM; SI (selectivity index), IC50(MAO-A)/IC50(MAO-B) [3, 7]: > 549
– | 224 to 227 | – | – | C[C@H](NCc1ccc(-c2ccccc2C(F)(F)F)cc1)C(N)=O [Compound 18h] | > 100 | IC50 [3, 6]: > 10 µM
– | 209 to 212 | – | – | C[C@H](NCc1ccc(-c2cccc(OC(F)(F)F)c2)cc1)C(N)=O [Compound 18k] | > 100 | SI (selectivity index), IC50(MAO-A)/IC50(MAO-B) [3, 7]: > 463
– | 256 to 259 | – | – | C[C@H](NCc1ccc(-c2ccc(OC(F)(F)F)cc2)cc1)C(N)=O [Compound 18l] | > 100 | SI (selectivity index), IC50(MAO-A)/IC50(MAO-B) [3, 7]: > 1,020
3.33 ± 0.054 | 231 to 233 | > 100 | > 30 | COc1ccc(-c2ccc(CN[C@@H](C)C(N)=O)cc2)cc1 [Compound 18n] | – | –

IC50 [1] [µM] | melting point [°C] | IC50 [2] [µM] | SI (selectivity index), IC50(MAO-A)/IC50(MAO-B) [1] | SMILES | IC50 [4] [µM] | also measured
0.325 ± 0.09 | 253 to 256 | > 100 | > 307 | CC(C)Cc1ccc(-c2ccc(CN[C@@H](C)C(N)=O)cc2)cc1 [Compound 18o] | – | –
– | – | – | – | CC(NCc1ccc(-c2ccc(C(F)(F)F)cc2)cc1)C(N)=O (stereo not shown) [Compound 19j] | > 100 | –
0.242 ± 0.008 | 253 to 256 | > 100 | > 413 | CC[C@H](NCc1ccc(-c2ccc(C(F)(F)F)cc2)cc1)C(N)=O [Compound 20j] | – | –
0.099 ± 0.005 | – | > 100 | > 1,010 | CC[C@H](NCc1ccc(-c2ccc(OC(F)(F)F)cc2)cc1)C(N)=O [Compound 20l] | – | –
> 10 | 274 to 278 | > 100 | – | CC(C)[C@H](NCc1ccc(-c2cccc(C(F)(F)F)c2)cc1)C(N)=O [Compound 21i] | – | –
4.07 ± 0.15 | 266 to 267 | > 100 | > 25 | CC(C)[C@H](NCc1ccc(-c2ccc(C(F)(F)F)cc2)cc1)C(N)=O [Compound 21j] | – | –
> 10 | 264 to 265 | > 100 | – | CC(C)C[C@H](NCc1ccc(-c2cccc(F)c2)cc1)C(N)=O [Compound 22c] | – | –
> 10 | 239 to 243 | > 100 | – | CC(C)C[C@H](NCc1ccc(-c2cccc(C(F)(F)F)c2)cc1)C(N)=O [Compound 22i] | – | –
5.3 ± 0.09 | 267 to 270 | > 100 | > 19 | CC(C)C[C@H](NCc1ccc(-c2ccc(C(F)(F)F)cc2)cc1)C(N)=O [Compound 22j] | – | –
> 10 | 232 to 233 | > 100 | – | CC(C)C[C@H](NCc1ccc(-c2cccc(OC(F)(F)F)c2)cc1)C(N)=O [Compound 22k] | – | –
> 10 | 240 to 242 | > 100 | – | COc1cccc(-c2ccc(CN[C@@H](CC(C)C)C(N)=O)cc2)c1 [Compound 22m] | – | –
> 10 | 252 to 255 | > 100 | – | CCC(C)[C@H](NCc1ccc(-c2cccc(F)c2)cc1)C(N)=O (stereo partly shown) [Compound 23c] | – | –
5 to 10 | 248 to 250 | > 100 | – | CCC(C)[C@H](NCc1ccc(-c2cccc(Cl)c2)cc1)C(N)=O (stereo partly shown) [Compound 23f] | – | –
> 10 | 260 to 262 | > 100 | – | CCC(C)[C@H](NCc1ccc(-c2ccc(Cl)cc2)cc1)C(N)=O (stereo partly shown) [Compound 23g] | – | –
5 to 10 | 263 to 265 | > 100 | – | CCC(C)[C@H](NCc1ccc(-c2cccc(C(F)(F)F)c2)cc1)C(N)=O (stereo partly shown) [Compound 23i] | – | –
– | – | – | – | C[C@H](NCc1ccc(OCc2cccc(F)c2)cc1)C(N)=O [Safinamide, reference compound] | – | vertical grid test: time to turn [5]: reduced; vertical grid test: total time [5]: reduced

SMILES | IC50 [1] [µM] | melting point [°C] | IC50 [2] [µM] | SI (selectivity index), IC50(MAO-A)/IC50(MAO-B) [1] | IC50 [4] [µM] | also measured
C[C@H](NCc1ccc(-c2ccccc2F)cc1)C(N)=O [Compound 18b] | – | 131 to 135 | – | – | > 100 | SI (selectivity index), IC50(MAO-A)/IC50(MAO-B) [3, 7]: > 12
C[C@H](NCc1ccc(-c2cccc(F)c2)cc1)C(N)=O [Compound 18c] | – | 235 to 238 | – | – | > 100 | SI (selectivity index), IC50(MAO-A)/IC50(MAO-B) [3, 7]: > 27
C[C@H](NCc1ccc(-c2ccc(F)cc2)cc1)C(N)=O [Compound 18d] | – | 162 to 164 | – | – | > 100 | SI (selectivity index), IC50(MAO-A)/IC50(MAO-B) [3, 7]: > 23
C[C@H](NCc1ccc(-c2cccc(C(F)(F)F)c2)cc1)C(N)=O [Compound 18i] | – | 215 to 217 | – | – | > 100 | IC50 [3, 6]: 0.316 ± 0.006 µM; SI (selectivity index), IC50(MAO-A)/IC50(MAO-B) [3, 7]: > 316
CC(=O)N[C@H]1CC(=O)N(c2ccc(OCc3cccc(F)c3)cc2)C1 [Sembragiline, reference compound] | 0.015 ± 0.005 | – | 3.85 | 653 | – | IC50 ([3]; positive control, literature value, ref Borroni, E. et al. J. Pharmacol. Exp. Ther. 362, 413–423 (2017)): 0.006 ± 0.001 µM
